Source: patent US12343326B2, “Psychoactive medicines and their use for treating psychiatric and neurological conditions and disorders” (Transcend Therapeutics, Inc., priority 2021, dated 2025)

Legend:
Experiment in all cases: β-arrestin based GPCR screen (PathHunter / GPCRmax), agonist mode
Format in all cases: cell-based
Design in all cases: host or cells: PathHunter cell lines
168 GPCRs [1] = target: 168 GPCRs (Homo sapiens, UniProt P21731); details: TBXA2R
Method: (§1) For agonist determination, cells were incubated with sample to induce response. […] Vehicle concentration was 1%.

168 GPCRs [2] = target: T1, 168 GPCRs (Homo sapiens, UniProt Q5NUL3)
T1 sequence (Q5NUL3 1-361): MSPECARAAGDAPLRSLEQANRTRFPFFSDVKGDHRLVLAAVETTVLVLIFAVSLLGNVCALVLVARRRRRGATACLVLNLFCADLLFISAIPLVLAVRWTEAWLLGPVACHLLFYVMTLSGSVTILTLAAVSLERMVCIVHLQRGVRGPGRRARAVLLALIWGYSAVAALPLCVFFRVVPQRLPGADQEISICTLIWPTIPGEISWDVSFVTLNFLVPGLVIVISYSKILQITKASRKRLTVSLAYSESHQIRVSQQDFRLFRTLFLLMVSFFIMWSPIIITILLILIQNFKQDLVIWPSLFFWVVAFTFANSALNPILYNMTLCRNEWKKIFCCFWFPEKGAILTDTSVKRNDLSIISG
Method: as §1

168 GPCRs [3] = target: 168 GPCRs (Homo sapiens, UniProt P43115)
Method: as §1

168 GPCRs [4] = target: 168 GPCRs (Homo sapiens, UniProt Q9GZQ6)
Method: as §1

168 GPCRs [5] = target: 168 GPCRs (Homo sapiens, UniProt P35346)
Method: as §1

168 GPCRs [6] = target: 168 GPCRs (Homo sapiens, UniProt P41587)
Method: as §1

168 GPCRs [7] = target: 168 GPCRs (Homo sapiens, UniProt P25021)
Method: as §1

168 GPCRs [8] = target: 168 GPCRs (Homo sapiens, UniProt P37288); details: AVPR1A, Agonist
Method: as §1

168 GPCRs [9] = target: 168 GPCRs (Homo sapiens, UniProt P30556); details: AGTR1, Agonist
Method: as §1

168 GPCRs [10] = target: T2, 168 GPCRs (Homo sapiens, UniProt P30939); details: HTR1F
T2 sequence (P30939 1-366): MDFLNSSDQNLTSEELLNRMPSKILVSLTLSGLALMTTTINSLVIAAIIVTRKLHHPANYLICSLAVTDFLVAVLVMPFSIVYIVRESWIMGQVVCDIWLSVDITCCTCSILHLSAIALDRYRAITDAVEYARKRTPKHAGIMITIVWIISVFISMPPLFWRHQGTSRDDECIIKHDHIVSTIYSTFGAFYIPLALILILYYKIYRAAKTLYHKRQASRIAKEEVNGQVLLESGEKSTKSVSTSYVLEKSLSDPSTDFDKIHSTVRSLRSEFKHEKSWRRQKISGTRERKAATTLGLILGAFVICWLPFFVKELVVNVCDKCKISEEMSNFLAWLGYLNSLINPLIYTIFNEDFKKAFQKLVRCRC
Method: as §1

168 GPCRs [11] = target: 168 GPCRs (Homo sapiens, UniProt O43614)
Method: as §1

168 GPCRs [12] = target: 168 GPCRs (Homo sapiens, UniProt P21462)
Method: as §1

168 GPCRs [13] = target: 168 GPCRs (Homo sapiens, UniProt O00574)
Method: as §1

168 GPCRs [14] = target: 168 GPCRs (Homo sapiens, UniProt P34972)
Method: as §1

168 GPCRs [15] = target: 168 GPCRs (Homo sapiens, UniProt P49683); details: PRLHR
Method: as §1

168 GPCRs [16] = target: 168 GPCRs (Homo sapiens, UniProt P41145)
Method: as §1

168 GPCRs [17] = target: 168 GPCRs (Homo sapiens, UniProt P41143)
Method: as §1

168 GPCRs [18] = target: 168 GPCRs (Homo sapiens, UniProt P23945); details: FSHR
Method: as §1

Chain of 168 GPCRs (Homo sapiens, UniProt O43614) (O43614 whole entry): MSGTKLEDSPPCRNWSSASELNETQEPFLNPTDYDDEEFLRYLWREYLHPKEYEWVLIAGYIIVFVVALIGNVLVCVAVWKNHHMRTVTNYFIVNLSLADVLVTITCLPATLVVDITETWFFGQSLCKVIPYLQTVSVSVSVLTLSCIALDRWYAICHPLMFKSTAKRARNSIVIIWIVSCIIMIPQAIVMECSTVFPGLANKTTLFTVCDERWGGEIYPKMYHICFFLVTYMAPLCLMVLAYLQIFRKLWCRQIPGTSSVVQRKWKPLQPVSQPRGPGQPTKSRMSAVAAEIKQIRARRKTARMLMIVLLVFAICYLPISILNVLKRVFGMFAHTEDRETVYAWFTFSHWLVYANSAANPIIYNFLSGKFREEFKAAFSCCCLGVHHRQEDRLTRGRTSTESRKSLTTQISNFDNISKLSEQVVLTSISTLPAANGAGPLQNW
Chain of 168 GPCRs (Homo sapiens, UniProt P21462) (P21462 whole entry): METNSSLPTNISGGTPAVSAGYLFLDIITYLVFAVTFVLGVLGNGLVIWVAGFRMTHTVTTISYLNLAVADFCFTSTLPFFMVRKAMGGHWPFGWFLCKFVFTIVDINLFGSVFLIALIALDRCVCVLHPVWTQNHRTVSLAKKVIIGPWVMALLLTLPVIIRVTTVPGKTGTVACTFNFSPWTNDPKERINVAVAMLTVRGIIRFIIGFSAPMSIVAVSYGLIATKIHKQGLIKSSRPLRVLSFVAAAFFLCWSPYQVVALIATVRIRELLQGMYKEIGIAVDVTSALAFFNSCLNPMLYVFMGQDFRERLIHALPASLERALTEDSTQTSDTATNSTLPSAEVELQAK
Chain of 168 GPCRs (Homo sapiens, UniProt O00574) (O00574 whole entry): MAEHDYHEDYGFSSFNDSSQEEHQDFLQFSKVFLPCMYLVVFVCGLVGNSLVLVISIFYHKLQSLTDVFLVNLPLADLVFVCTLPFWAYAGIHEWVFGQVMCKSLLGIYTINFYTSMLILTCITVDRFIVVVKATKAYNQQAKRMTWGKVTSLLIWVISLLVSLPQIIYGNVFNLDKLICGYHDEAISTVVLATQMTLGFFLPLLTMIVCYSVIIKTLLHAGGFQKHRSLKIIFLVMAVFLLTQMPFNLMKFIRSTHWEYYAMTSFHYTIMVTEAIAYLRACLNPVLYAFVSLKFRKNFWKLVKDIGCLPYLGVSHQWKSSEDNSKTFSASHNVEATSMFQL
Chain of 168 GPCRs (Homo sapiens, UniProt P21731) (P21731 whole entry): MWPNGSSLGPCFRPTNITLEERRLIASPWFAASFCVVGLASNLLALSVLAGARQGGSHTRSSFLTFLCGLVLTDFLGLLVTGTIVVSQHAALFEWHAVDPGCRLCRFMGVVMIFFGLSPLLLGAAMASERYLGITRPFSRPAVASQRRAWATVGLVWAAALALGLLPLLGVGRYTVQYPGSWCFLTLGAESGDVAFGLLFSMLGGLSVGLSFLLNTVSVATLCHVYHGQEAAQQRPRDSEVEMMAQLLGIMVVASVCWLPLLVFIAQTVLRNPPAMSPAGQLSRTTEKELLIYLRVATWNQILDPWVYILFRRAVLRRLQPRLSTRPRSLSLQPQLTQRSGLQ
Chain of 168 GPCRs (Homo sapiens, UniProt P43115) (P43115 whole entry): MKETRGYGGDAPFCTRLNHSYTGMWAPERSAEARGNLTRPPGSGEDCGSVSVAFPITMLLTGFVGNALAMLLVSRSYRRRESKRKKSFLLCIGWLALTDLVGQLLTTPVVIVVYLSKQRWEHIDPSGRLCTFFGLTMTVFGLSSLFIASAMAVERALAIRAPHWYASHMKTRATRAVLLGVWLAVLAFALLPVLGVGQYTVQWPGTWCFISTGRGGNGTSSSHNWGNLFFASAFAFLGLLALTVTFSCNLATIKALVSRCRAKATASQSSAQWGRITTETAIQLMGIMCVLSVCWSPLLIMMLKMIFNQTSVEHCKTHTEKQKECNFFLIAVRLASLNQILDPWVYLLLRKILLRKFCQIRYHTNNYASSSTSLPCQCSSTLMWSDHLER
Chain of 168 GPCRs (Homo sapiens, UniProt P41145) (P41145 whole entry): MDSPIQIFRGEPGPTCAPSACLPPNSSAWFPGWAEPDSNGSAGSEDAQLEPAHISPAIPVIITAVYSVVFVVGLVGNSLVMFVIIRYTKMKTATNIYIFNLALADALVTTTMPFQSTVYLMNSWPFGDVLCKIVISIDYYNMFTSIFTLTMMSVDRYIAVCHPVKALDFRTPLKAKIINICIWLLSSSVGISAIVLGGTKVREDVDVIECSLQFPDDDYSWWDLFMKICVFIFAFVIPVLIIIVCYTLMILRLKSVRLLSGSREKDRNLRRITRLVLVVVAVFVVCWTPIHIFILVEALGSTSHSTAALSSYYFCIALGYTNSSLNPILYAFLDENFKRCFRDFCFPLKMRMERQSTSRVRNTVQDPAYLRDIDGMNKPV
Chain of 168 GPCRs (Homo sapiens, UniProt P49683) (P49683 whole entry): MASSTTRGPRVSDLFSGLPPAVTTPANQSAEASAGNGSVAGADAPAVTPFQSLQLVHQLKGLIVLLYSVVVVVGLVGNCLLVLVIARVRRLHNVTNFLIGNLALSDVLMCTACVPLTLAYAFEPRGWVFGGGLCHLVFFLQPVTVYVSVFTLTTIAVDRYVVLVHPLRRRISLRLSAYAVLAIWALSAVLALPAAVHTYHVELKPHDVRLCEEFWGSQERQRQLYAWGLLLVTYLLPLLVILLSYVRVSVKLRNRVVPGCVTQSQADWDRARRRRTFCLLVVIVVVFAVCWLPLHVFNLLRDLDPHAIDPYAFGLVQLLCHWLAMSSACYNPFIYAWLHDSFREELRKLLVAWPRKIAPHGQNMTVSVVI
Chain of 168 GPCRs (Homo sapiens, UniProt P30556) (P30556 whole entry): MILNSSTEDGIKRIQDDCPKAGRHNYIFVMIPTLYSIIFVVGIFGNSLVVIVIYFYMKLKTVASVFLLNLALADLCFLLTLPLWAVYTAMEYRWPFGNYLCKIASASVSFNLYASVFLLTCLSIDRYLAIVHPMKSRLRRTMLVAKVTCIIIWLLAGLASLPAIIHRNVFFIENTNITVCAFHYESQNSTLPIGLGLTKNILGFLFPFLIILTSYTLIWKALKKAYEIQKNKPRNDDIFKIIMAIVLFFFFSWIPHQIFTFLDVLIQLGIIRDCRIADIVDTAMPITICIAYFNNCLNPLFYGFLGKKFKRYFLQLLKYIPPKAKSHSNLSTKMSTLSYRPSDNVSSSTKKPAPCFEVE
Chain of 168 GPCRs (Homo sapiens, UniProt P23945) (P23945 18-695): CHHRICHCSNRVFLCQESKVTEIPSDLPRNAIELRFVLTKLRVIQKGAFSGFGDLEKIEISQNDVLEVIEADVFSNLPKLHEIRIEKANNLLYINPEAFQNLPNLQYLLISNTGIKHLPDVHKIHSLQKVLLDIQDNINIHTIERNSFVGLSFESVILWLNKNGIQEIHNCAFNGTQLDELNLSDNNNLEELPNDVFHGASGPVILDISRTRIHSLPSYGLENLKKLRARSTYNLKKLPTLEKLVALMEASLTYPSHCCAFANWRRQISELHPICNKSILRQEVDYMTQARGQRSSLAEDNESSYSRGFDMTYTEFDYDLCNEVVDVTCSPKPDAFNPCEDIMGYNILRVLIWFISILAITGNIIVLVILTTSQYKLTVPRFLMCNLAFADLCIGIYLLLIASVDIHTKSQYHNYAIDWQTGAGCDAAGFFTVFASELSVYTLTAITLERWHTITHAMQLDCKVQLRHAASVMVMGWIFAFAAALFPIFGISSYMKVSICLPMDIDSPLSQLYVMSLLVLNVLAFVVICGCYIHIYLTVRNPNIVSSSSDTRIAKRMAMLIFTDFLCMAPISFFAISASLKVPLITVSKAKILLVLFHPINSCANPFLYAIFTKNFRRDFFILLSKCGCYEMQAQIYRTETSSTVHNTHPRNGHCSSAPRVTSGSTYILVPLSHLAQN
Chain of 168 GPCRs (Homo sapiens, UniProt P35346) (P35346 whole entry): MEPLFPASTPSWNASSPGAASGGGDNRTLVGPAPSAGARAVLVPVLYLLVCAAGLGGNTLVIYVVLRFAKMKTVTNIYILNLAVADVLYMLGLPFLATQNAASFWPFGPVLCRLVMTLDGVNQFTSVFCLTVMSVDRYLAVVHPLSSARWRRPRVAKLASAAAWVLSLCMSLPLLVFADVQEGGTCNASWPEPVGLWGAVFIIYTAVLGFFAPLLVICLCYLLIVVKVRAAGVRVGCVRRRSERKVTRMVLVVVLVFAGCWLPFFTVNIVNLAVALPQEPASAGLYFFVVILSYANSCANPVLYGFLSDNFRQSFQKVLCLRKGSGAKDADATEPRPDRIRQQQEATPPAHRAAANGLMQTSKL
Chain of 168 GPCRs (Homo sapiens, UniProt P37288) (P37288 whole entry): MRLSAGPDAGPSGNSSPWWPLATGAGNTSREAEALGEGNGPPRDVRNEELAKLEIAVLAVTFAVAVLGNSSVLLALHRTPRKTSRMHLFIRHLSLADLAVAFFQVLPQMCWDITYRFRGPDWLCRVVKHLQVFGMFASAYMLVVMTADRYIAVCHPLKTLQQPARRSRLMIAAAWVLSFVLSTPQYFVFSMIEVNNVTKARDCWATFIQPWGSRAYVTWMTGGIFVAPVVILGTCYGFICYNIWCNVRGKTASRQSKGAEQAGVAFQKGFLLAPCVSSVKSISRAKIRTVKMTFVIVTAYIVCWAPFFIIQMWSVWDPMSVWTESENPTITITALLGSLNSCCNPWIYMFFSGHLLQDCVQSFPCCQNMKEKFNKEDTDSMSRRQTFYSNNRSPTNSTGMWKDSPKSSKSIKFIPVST
Chain of 168 GPCRs (Homo sapiens, UniProt P41587) (P41587 24-438): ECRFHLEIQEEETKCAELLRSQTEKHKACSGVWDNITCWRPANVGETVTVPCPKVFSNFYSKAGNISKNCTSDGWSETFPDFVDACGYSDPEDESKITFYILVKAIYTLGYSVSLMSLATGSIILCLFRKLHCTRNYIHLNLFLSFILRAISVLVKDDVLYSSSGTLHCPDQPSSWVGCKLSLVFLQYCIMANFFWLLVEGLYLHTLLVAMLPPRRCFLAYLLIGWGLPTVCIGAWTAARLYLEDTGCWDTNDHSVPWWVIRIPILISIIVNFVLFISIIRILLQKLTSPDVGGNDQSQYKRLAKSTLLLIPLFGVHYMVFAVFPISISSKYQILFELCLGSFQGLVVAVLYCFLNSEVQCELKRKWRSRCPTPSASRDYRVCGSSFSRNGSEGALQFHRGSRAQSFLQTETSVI

Molecule `CNC(C)C(=O)c1ccc2c(c1)OCO2` (stereo not drawn) [methylone, 3,4-methylenedioxy-N-methylcathinone] has an activity at 10 µM (168 GPCRs [1]; Agonist mode, 10 uM) of -2.95%, an activity at 1 µM (168 GPCRs [1]; Agonist, 1 uM) of -1.1% and an activity at 10 µM (168 GPCRs [2]; GPR120, Agonist mode, 10 uM) of -5.8%. The activity at 1 µM (168 GPCRs [2]; GPR120, Agonist, 1 uM) was -5.1%, the activity at 10 µM (168 GPCRs [3]; PTGER3, Agonist mode, 10 uM) was 1.9% and the activity at 1 µM (168 GPCRs [3]; PTGER3, Agonist, 1 uM) was 4.5%. The activity at 10 µM (168 GPCRs [4]; NPFFR1, Agonist mode, 10 uM) was -5.6%, the activity at 1 µM (168 GPCRs [4]; NPFFR1, Agonist, 1 uM) was -4.6% and the activity at 10 µM (168 GPCRs [5]; SSTR5, Agonist mode, 10 uM) was -1.3%. The activity at 1 µM (168 GPCRs [5]; SSTR5, Agonist, 1 uM) was -2.4%, the activity at 10 µM (168 GPCRs [6]; VIPR2, Agonist mode, 10 uM) was -0.3% and the activity at 1 µM (168 GPCRs [6]; VIPR2, Agonist, 1 uM) was -0.4%. It also gave an activity at 10 µM (168 GPCRs [7]; HRH2, Agonist mode, 10 uM) of 2.8%, an activity at 1 µM (168 GPCRs [7]; HRH2, Agonist, 1 uM) of -2.5% and an activity at 1 µM (168 GPCRs [8]; 1 uM) of -0.6%. For the same molecule, the activity at 10 µM (168 GPCRs [8]; 10 uM) was -0.5%, the activity at 1 µM (168 GPCRs [9]; 1 uM) was -2.8% and the activity at 10 µM (168 GPCRs [9]; 10 uM) was -1%. The activity at 10 µM (168 GPCRs [10]; Agonist mode, 10 uM) was -3%, the activity at 1 µM (168 GPCRs [10]; Agonist, 1 uM) was -4.4% and the activity at 10 µM (168 GPCRs [11]; HCRTR2, Agonist mode, 10 uM) was 0.2%. For the same molecule, the activity at 1 µM (168 GPCRs [11]; HCRTR2, Agonist, 1 uM) was 0.2%, the activity at 10 µM (168 GPCRs [12]; FPR1, Agonist mode, 10 uM) was 0.5% and the activity at 1 µM (168 GPCRs [12]; FPR1, Agonist, 1 uM) was 2.2%. For the same molecule, the activity at 10 µM (168 GPCRs [13]; CXCR6, Agonist mode, 10 uM) was 0.3%, the activity at 1 µM (168 GPCRs [13]; CXCR6, Agonist, 1 uM) was 0.3% and the activity at 10 µM (168 GPCRs [14]; CNR2, Agonist mode, 10 uM) was 3.2%. It also gave an activity at 1 µM (168 GPCRs [14]; CNR2, Agonist, 1 uM) of 7%, an activity at 10 µM (168 GPCRs [15]; Agonist mode, 10 uM) of -0.2% and an activity at 1 µM (168 GPCRs [15]; Agonist, 1 uM) of -2.2%. The activity at 10 µM (168 GPCRs [16]; OPRK1, Agonist mode, 10 uM) was -4.1%, the activity at 1 µM (168 GPCRs [16]; OPRK1, Agonist, 1 uM) was -6.3% and the activity at 10 µM (168 GPCRs [17]; OPRD1, Agonist mode, 10 uM) was -1.5%. It also gave an activity at 1 µM (168 GPCRs [17]; OPRD1, Agonist, 1 uM) of -2%, an activity at 10 µM (168 GPCRs [18]; Agonist mode, 10 uM) of 2.2% and an activity at 1 µM (168 GPCRs [18]; Agonist, 1 uM) of -1%.
